Measured values reported in ChEMBL document CHEMBL1136101, “An evaluation of a C-glucuronide as a liver targeting group: conjugate of a glucocorticoid antagonist” (Bioorg Med Chem Lett, 2003).

How the values were obtained:
[1] = Plasma concentration at 7 hr after intravenous dosing; format: ADME
[2] = Plasma clearance by iv administration at a dose 5 mg/kg; details: read-out: Clp (converted)
[3] = Half-life period was determined; format: ADME
Glucocorticoid receptor [4] = target: T1, Glucocorticoid receptor (Homo sapiens, UniProt P04150); experiment: Inhibition of Dexamethasone binding to Glucocorticoid receptor
T1 sequence (P04150 whole entry): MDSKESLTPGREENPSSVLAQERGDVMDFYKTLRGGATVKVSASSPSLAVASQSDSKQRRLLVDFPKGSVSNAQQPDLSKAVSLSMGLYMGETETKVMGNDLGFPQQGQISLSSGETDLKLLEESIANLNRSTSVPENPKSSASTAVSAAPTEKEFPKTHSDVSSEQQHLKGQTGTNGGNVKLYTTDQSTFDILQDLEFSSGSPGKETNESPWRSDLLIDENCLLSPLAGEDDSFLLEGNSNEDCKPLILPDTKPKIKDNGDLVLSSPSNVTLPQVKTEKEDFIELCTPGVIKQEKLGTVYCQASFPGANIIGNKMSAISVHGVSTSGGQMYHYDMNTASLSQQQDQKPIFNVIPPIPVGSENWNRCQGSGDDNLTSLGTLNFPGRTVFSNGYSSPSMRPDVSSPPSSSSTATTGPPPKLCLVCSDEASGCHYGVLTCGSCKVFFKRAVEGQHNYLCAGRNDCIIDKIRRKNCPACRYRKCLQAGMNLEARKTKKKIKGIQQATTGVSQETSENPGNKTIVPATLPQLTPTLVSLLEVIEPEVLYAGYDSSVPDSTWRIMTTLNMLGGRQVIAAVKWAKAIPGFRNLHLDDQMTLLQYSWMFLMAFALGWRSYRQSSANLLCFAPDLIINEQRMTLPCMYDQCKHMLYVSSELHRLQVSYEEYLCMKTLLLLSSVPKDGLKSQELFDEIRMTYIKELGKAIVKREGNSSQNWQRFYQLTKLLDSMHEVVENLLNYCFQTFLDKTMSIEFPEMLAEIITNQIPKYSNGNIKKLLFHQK

Glucocorticoid receptor [5] = target: T1, Glucocorticoid receptor; experiment: Inhibition of Dexamethasone stimulated transcriptional activity in CHO cells expressing glucocorticoid receptor; format: functional, cell-based
Glucocorticoid receptor [6] = target: T2, Glucocorticoid receptor (Rattus norvegicus, UniProt P06536); experiment: Inhibition of prednisilone-induced tyrosine aminotransferase (TAT) activity in rat hepatocytes; format: cell-based, Hepatocyte
T2 sequence (P06536 whole entry): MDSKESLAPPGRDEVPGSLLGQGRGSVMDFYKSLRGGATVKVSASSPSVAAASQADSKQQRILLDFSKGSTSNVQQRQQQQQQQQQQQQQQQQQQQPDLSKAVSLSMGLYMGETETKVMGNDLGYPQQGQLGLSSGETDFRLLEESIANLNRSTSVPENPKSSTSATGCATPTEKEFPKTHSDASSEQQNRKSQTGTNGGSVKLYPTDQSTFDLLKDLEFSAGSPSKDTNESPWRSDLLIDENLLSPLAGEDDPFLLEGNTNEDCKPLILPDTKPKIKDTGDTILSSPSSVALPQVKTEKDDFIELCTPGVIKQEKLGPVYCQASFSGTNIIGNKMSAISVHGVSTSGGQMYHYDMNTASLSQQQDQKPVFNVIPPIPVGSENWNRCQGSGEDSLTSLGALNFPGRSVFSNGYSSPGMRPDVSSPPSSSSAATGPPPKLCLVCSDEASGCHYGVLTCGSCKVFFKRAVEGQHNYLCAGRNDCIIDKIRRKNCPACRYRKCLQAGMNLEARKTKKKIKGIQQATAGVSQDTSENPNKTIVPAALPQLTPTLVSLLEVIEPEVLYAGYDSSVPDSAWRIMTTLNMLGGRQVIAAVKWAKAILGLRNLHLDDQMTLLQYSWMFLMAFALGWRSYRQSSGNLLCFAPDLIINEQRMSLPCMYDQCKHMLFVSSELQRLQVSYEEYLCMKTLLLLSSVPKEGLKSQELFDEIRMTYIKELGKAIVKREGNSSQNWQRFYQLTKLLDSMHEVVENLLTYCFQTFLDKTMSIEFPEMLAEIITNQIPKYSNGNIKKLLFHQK

Q: With `CC#C[C@]1(O)CC[C@H]2[C@@H]3CCC4=CC(=O)CCC4=C3[C@@H](c3ccc(N(C)CCCC4OC(C(=O)O)C(O)C(O)C4O)cc3)C[C@@]21C` (stereo partly specified) as the molecule, how does the concentration at 7 h [1] read?
A: 3 ng/mL

Q: And the clearance [2]?
A: 88.3 mL/min/kg

Q: What about the half-life [3] of the same molecule?
A: 1.8 h

Q: What about the IC50 (Glucocorticoid receptor [4]) of the same molecule?
A: 16.7 nM

Q: What about the IC50 (Glucocorticoid receptor [5]) of the same molecule?
A: 550 nM

Q: And the IC50 (Glucocorticoid receptor [6])?
A: 2800 nM
